Test results reported in patent publication US20220062258A1, “Heterocyclic derivatives” (Merck Patent GmbH, priority 2019, published 2022).

What follows are compounds tested on HUVEC primary endothelial cells (assay: HUVEC proliferation assay (CyQUANT Direct)). Details: Homo sapiens, 72 h, 3 days incubation.
Assay type: cell-based
Experimental: HUVEC Proliferation Assay
Proliferation of HUVEC primary endothelial cells was used as cell-based mechanistical assay.^25 Applying the CyQUANT@ Direct Cell Proliferation Assay (Invitrogen C35011) which is based on a cell-permeant fluorescent DNA-binding dye, DNA content is used as a direct measure for cell number. Pooled HUVEC cells (Promocell C-12203) are cultivated in the medium supplied by Promocell (Cat No C-22020) for maximum 4 passages. For the assay 500 cells/well are seeded into black 384-well culture plates with clear bottom in 70 μl culture medium and incubated for 6 hours at 37° C., 5% CO2. 10 μl prediluted test compounds are added and cells incubated for 3 days at 37° C., 5% CO2 before measurement of DNA content. CyQUANT detection reagent is prepared according to the manufacturers protocol, 20 μl/well added and incubated at 37° C., 5% CO2 for at least 1 h before measurement of fluorescence at Envision multimode reader (Perkin-Elmer, Waltham) with excitation 480 nm and emission 535 nm (bottom read mode). The assay is performed as dose response with 10 compound dilutions. Inhibitory values (IC50) were determined using the program ASSAY ANALYZER® from GeneData (Basel, Switzerland).

Row | Compound | IC50
1 | O=C1CCC(N2C(=O)c3ccc(NCCOCCOCCOCCNC(=O)c4cc5cc(N6CC[C@](O)(C(=O)NCc7cc(F)cc(F)c7)C6=O)ccc5[nH]4)cc3C2=O)C(=O)N1 (stereo partly drawn) [Compound A42, 5-[(3S)-3-{[(3,5-difluorophenyl)methyl]carbamoyl}-3-hydroxy-2-oxopyrrolidin-1-yl]-N-(2-{2-[2-(2-{[2-(2,6-dioxopiperidin-3-yl)-1,3-dioxo-2,3-dihydro-1H-isoindol-5-yl]amino}ethoxy)ethoxy]ethoxy}ethyl)-1H-indole-2-carboxamide] | 4600 nM
2 | O=C1CCC(N2C(=O)c3ccc(C#CCOCCOCCOCCOCCNC(=O)c4cc5cc(N6CC[C@](O)(C(=O)NCc7cc(F)cc(F)c7)C6=O)ccc5[nH]4)cc3C2=O)C(=O)N1 (stereo partly drawn) [Compound A43, 5-[(3S)-3-{[(3,5-difluorophenyl)methyl]carbamoyl}-3-hydroxy-2-oxopyrrolidin-1-yl]-N-{15-[2-(2,6-dioxopiperidin-3-yl)-1,3-dioxo-2,3-dihydro-1H-isoindol-5-yl]-3,6,9,12-tetraoxapentadec-14-yn-1-yl}-1H-indole-2-carboxamide] | 7100 nM
3 | O=C1CCC(N2C(=O)c3cccc(NCCOCCOCCOCCOCCNC(=O)c4cc5cc(N6CC[C@](O)(C(=O)NCc7cc(F)cc(F)c7)C6=O)ccc5[nH]4)c3C2=O)C(=O)N1 (stereo partly drawn) [Compound A44, 5-[(3S)-3-{[(3,5-difluorophenyl)methyl]carbamoyl}-3-hydroxy-2-oxopyrrolidin-1-yl]-N-(14-{[2-(2,6-dioxopiperidin-3-yl)-1,3-dioxo-2,3-dihydro-1H-isoindol-4-yl]amino}-3,6,9,12-tetraoxatetradecan-1-yl)-1H-indole-2-carboxamide] | 7000 nM
4 | CN(CCOCCOCCOCCOCCOCCN(C)c1cccc2c1C(=O)N(C1CCC(=O)NC1=O)C2=O)C(=O)c1cc2cc(N3CC[C@](O)(C(=O)NCc4cc(F)cc(F)c4)C3=O)ccc2[nH]1 (stereo partly drawn) [Compound A45, 5-[(3S)-3-{[(3,5-difluorophenyl)methyl]carbamoyl}-3-hydroxy-2-oxopyrrolidin-1-yl]-N-{2-[2-(2,6-dioxopiperidin-3-yl)-1,3-dioxo-2,3-dihydro-1H-isoindol-4-yl]-5,8,11,14,17-pentaoxa-2-azanonadecan-19-yl}-N-methyl-1H-indole-2-carboxamide] | 610 nM
5 | O=C1CCC(N2C(=O)c3cccc(C#CCOCCOCCOCCOCCOCCNC(=O)c4cc5cc(N6CC[C@](O)(C(=O)NCc7cc(F)cc(F)c7)C6=O)ccc5[nH]4)c3C2=O)C(=O)N1 (stereo partly drawn) [Compound A46, 5-[(3S)-3-{[(3,5-difluorophenyl)methyl]carbamoyl}-3-hydroxy-2-oxopyrrolidin-1-yl]-N-{18-[2-(2,6-dioxopiperidin-3-yl)-1,3-dioxo-2,3-dihydro-1H-isoindol-4-yl]-3,6,9,12,15-pentaoxaoctadec-17-yn-1-yl}-1H-indole-2-carboxamide] | > 30000 nM
6 | CN(CCOCCOCCOCCOCCN(C)c1ccc2c(c1)C(=O)N(C1CCC(=O)NC1=O)C2=O)C(=O)c1cc2cc(N3CC[C@](O)(C(=O)NCc4cc(F)cc(F)c4)C3=O)ccc2[nH]1 (stereo partly drawn) [Compound A47, 5-[(3S)-3-{[(3,5-difluorophenyl)methyl]carbamoyl}-3-hydroxy-2-oxopyrrolidin-1-yl]-N-{2-[2-(2,6-dioxopiperidin-3-yl)-1,3-dioxo-2,3-dihydro-1H-isoindol-5-yl]-5,8,11,14-tetraoxa-2-azahexadecan-16-yl}-N-methyl-1H-indole-2-carboxamide] | 240 nM
7 | O=C1CCC(N2C(=O)c3ccc(NCCOCCOCCOCCN4CCN(C(=O)c5cc6cc(N7CC[C@](O)(C(=O)NCc8cc(F)cc(F)c8)C7=O)ccc6[nH]5)CC4)cc3C2=O)C(=O)N1 (stereo partly drawn) [Compound A48, (3S)—N-[(3,5-difluorophenyl)methyl]-1-{2-[4-(2-{2-[2-(2-{[2-(2,6-dioxopiperidin-3-yl)-1,3-dioxo-2,3-dihydro-1H-isoindol-5-yl]amino}ethoxy)ethoxy]ethoxy}ethyl)piperazine-1-carbonyl]-1H-indol-5-yl}-3-hydroxy-2-oxopyrrolidine-3-carboxamide] | 85 nM
8 | O=C1CCC(N2C(=O)c3ccc(NCCOCCOCCN4CCC5(CC4)CCN(C(=O)c4cc6cc(N7CC[C@](O)(C(=O)NCc8cc(F)cc(F)c8)C7=O)ccc6[nH]4)CC5)cc3C2=O)C(=O)N1 (stereo partly drawn) [Compound A49, (3S)—N-[(3,5-difluorophenyl)methyl]-1-[2-(9-{2-[2-(2-{[2-(2,6-dioxopiperidin-3-yl)-1,3-dioxo-2,3-dihydro-1H-isoindol-5-yl]amino}ethoxy)ethoxy]ethyl}-3,9-diazaspiro[5.5]undecane-3-carbonyl)-1H-indol-5-yl]-3-hydroxy-2-oxopyrrolidine-3-carboxamide] | 51 nM
9 | O=C1CCC(N2C(=O)c3ccc(NC(=O)CCCCCCCCCCCCCNC(=O)c4cc5cc(N6CC[C@](O)(C(=O)NCc7cc(F)cc(F)c7)C6=O)ccc5[nH]4)cc3C2=O)C(=O)N1 (stereo partly drawn) [Compound A50, (3S)—N-[(3,5-difluorophenyl)methyl]-1-{2-[(13-{[2-(2,6-dioxopiperidin-3-yl)-1,3-dioxo-2,3-dihydro-1H-isoindol-5-yl]carbamoyl}tridecyl)carbamoyl]-1H-indol-5-yl}-3-hydroxy-2-oxopyrrolidine-3-carboxamide] | 180 nM
10 | O=C1CCC(N2C(=O)c3ccc(NCCCCOCCCCOCCCCNC(=O)c4cc5cc(N6CC[C@](O)(C(=O)NCc7cc(F)cc(F)c7)C6=O)ccc5[nH]4)cc3C2=O)C(=O)N1 (stereo partly drawn) [Compound A51, 5-[(3S)-3-{[(3,5-difluorophenyl)methyl]carbamoyl}-3-hydroxy-2-oxopyrrolidin-1-yl]-N-{4-[4-(4-{[2-(2,6-dioxopiperidin-3-yl)-1,3-dioxo-2,3-dihydro-1H-isoindol-5-yl]amino}butoxy)butoxy]butyl}-1H-indole-2-carboxamide] | 400 nM
11 | O=C1CCC(N2C(=O)c3ccc(OCCOCCOCCOCCOCCNC(=O)c4cc5cc(N6CC[C@](O)(C(=O)NCc7cc(F)cc(F)c7)C6=O)ccc5[nH]4)cc3C2=O)C(=O)N1 (stereo partly drawn) [Compound A52, 5-[(3S)-3-{[(3,5-difluorophenyl)methyl]carbamoyl}-3-hydroxy-2-oxopyrrolidin-1-yl]-N-(14-{[2-(2,6-dioxopiperidin-3-yl)-1,3-dioxo-2,3-dihydro-1H-isoindol-5-yl]oxy}-3,6,9,12-tetraoxatetradecan-1-yl)-1H-indole-2-carboxamide] | 4900 nM
12 | O=C1CCC(N2C(=O)c3ccc(NC(=O)COCCOCCOCCOCCOCCNC(=O)c4cc5cc(N6CC[C@](O)(C(=O)NCc7cc(F)cc(F)c7)C6=O)ccc5[nH]4)cc3C2=O)C(=O)N1 (stereo partly drawn) [Compound A55, (3S)—N-[(3,5-difluorophenyl)methyl]-1-{2-[(1-{[2-(2,6-dioxopiperidin-3-yl)-1,3-dioxo-2,3-dihydro-1H-isoindol-5-yl]carbamoyl}-2,5,8,11,14-pentaoxahexadecan-16-yl)carbamoyl]-1H-indol-5-yl}-3-hydroxy-2-oxopyrrolidine-3-carboxamide] | > 30000 nM
13 | O=C1CCC(N2C(=O)c3cccc(NCCOCCOCCOCCOCCN4CCN(C(=O)c5cc6cc(N7CC[C@](O)(C(=O)NCc8cc(F)cc(F)c8)C7=O)ccc6[nH]5)CC4)c3C2=O)C(=O)N1 (stereo partly drawn) [Compound A56, (3S)—N-[(3,5-difluorophenyl)methyl]-1-{2-[4-(14-{[2-(2,6-dioxopiperidin-3-yl)-1,3-dioxo-2,3-dihydro-1H-isoindol-4-yl]amino}-3,6,9,12-tetraoxatetradecan-1-yl)piperazine-1-carbonyl]-1H-indol-5-yl}-3-hydroxy-2-oxopyrrolidine-3-carboxamide] | 120 nM
14 | O=C1CCC(N2C(=O)c3cccc(NC(=O)CCCCCCCCCCCCCCCCNC(=O)c4cc5cc(N6CC[C@](O)(C(=O)NCc7cc(F)cc(F)c7)C6=O)ccc5[nH]4)c3C2=O)C(=O)N1 (stereo partly drawn) [Compound A57, (3S)—N-[(3,5-difluorophenyl)methyl]-1-{2-[(16-{[2-(2,6-dioxopiperidin-3-yl)-1,3-dioxo-2,3-dihydro-1H-isoindol-4-yl]carbamoyl}hexadecyl)carbamoyl]-1H-indol-5-yl}-3-hydroxy-2-oxopyrrolidine-3-carboxamide] | > 30000 nM
